Assay results as given in patent US20030129222A1, “Liposomal imexon” (priority 2000, published 2003).
Read-outs that look alike come from different tables or passages of the source.

Experiments:
L1210 leukemia, Mdr = assay: Cytotoxicity in tumor cell culture, MTT assay; assay type: cell-based, murine; conditions: MTT assay, multidrug-resistant; read-out: IC50 against human mouse tumors, L1210 leukemia Mdr
Source text: (§1) Relative potencies of the N-substituted 2-cyanoaziridine-1-carboxamides in a panel of tumor cell cultures are compared in Table 3. This panel includes the following lines of human tumor cells: sensitive and imexon-resistant lines of multiple myeloma (Matsuoka et al., 1967); ovarian carcinoma resistant to standard drugs (Hamilton et al., 1984); melanoma with a slow growth fraction (Girard et al., 1973); breast carcinoma including sensitive, doxorubicin-resistant (P-glycoprotein-positive) (Taylor et al., 1991), and mitoxantrone-resistant (P-glycoprotein-negative) (Futscher et al., 1994) lines; sensitive and multidrug-resistant colon carcinoma (Noguchi et al., 1979; Dalton et al., 1988); and multidrug-resistant lung carcinoma (P-glycoprotein-negative) (Girard et al., 1973). It also has sensitive (Goldin et al., 1961) and multidrug-resistant (P-glycoprotein-positive) (Salmon and Hersh, 1994) murine L1210 leukemia cells.

L1210 leukemia, Sens = assay: Cytotoxicity in tumor cell culture, MTT assay; assay type: cell-based, murine; conditions: MTT assay; read-out: IC50 against human mouse tumors, L1210 leukemia Sens
Source text: as §1

[1] = tested on: 8226 myeloma, Sens (drug-sensitive); assay: Cytotoxicity in tumor cell culture, SRB assay; assay type: cell-based, human
Source text: as §1

OVCAR3 ovarian = assay: Cytotoxicity in tumor cell culture, SRB assay; assay type: cell-based, human; conditions: read-out: IC50 against human mouse tumors, OVCAR3 ovarian
Source text: as §1

A-549 lung = assay: Cytotoxicity in tumor cell culture, SRB assay; assay type: cell-based, human; conditions: read-out: IC50 against human mouse tumors, A-549 lung
Source text: as §1

[2] = tested on: MCF7 breast, Dox (doxorubicin-resistant); assay: Cytotoxicity in tumor cell culture, SRB assay; assay type: cell-based, human; conditions: doxorubicin-resistant; read-out: IC50 against human mouse tumors, MCF7 breast Dox
Source text: as §1

MCF7 breast, Sens = assay: Cytotoxicity in tumor cell culture, SRB assay; assay type: cell-based, human; conditions: read-out: IC50 against human mouse tumors, MCF7 breast Sens
Source text: as §1

[3] = tested on: MCF7 breast, mitox (mitoxantrone-resistant); assay: Cytotoxicity in tumor cell culture, SRB assay; assay type: cell-based, human; conditions: mitoxantrone-resistant; read-out: IC50 against human mouse tumors, MCF7 breast mitox
Source text: as §1

A375 melan = assay: Cytotoxicity in tumor cell culture, SRB assay; assay type: cell-based, human; conditions: read-out: IC50 against human mouse tumors, A375 melan
Source text: as §1

[4] = substituent constant, from Hansch and Leo or calculated using Clog P software; cited from earlier work
[5] = tested on: 8226 myeloma, Res (imexon-resistant); assay: Cytotoxicity in tumor cell culture, SRB assay; assay type: cell-based; conditions: line made resistant to imexon; read-out: IC50 against human mouse tumors, 8226 myeloma Res
Source text: as §1

WiDr colon, res = assay: Cytotoxicity in tumor cell culture, SRB assay; assay type: cell-based; conditions: multidrug-resistant; read-out: IC50 against human mouse tumors, WiDr colon res
Source text: as §1

WiDr colon, Sens = assay: Cytotoxicity in tumor cell culture, SRB assay; assay type: cell-based; conditions: read-out: IC50 against human mouse tumors, WiDr colon Sens
Source text: as §1

[6] = against sensitive myeloma, values repeated from Table 3 (μM there), read-out: IC50
[7] = drug-sensitive line, read-out: IC50 against human mouse tumors, 8226 myeloma Sens

SMILES | IC50 (L1210 leukemia, Mdr) | IC50 (L1210 leukemia, Sens) | Log(1/C) ([1]; against sensitive myeloma) | IC50 [1, 6] | IC50 [1, 7] | IC50 (OVCAR3 ovarian) | IC50 (A-549 lung) | IC50 [2] | IC50 (MCF7 breast, Sens) | IC50 [3] | IC50 (A375 melan) | π [4] | IC50 [5] | IC50 (WiDr colon, res) | IC50 (WiDr colon, Sens)
N#CC1CN1C(=O)Nc1ccc(F)cc1 (stereo not drawn) [Compound 14, 2-Cyanoaziridine-1-[N-(4-fluorophenyl)]carboxamide] | 5.9 µM | 7.3 µM | 5.30 | 5 µM | 5 µM | 5.9 µM | 6.2 µM | 2.4 µM | 1.9 µM | 2.7 µM | 3.4 µM | 2.14 | 5.9 µM | 9 µM | 2.1 µM
N#CC1CN1C(=O)Nc1ccc([N+](=O)[O-])cc1 (stereo not drawn) [Compound 16, 2-Cyanoaziridine-1-[N-(4-nitrophenyl)]carboxamide] | 2.6 µM | 2.6 µM | 5.04 | 9.1 µM | 9.1 µM | 6.5 µM | 3.9 µM | 3 µM | 3 µM | 3 µM | 3.9 µM | 1.72 | 8.6 µM | 3.7 µM | 4.3 µM
N#CC1CN1C(=O)NCc1ccccc1 (stereo not drawn) [Compound 11, 2-Cyanoaziridine-1-(N-benzyl) carboxamide] | 10 µM | 3.8 µM | 5.05 | 9 µM | 9 µM | 5 µM | 7.4 µM | 6 µM | 7.4 µM | 3.4 µM | 11 µM | 2.50 | 11 µM | 10 µM | 5.3 µM
N#CC1CN1C(=O)Nc1ccc(C(F)(F)F)cc1 (stereo not drawn) [Compound 15, 2-Cyanoaziridine-1-[N-(4-trifluorophenyl)]carboxamide] | 7.1 µM | 7.8 µM | 5.09 | 8.2 µM | 8.2 µM | 5.9 µM | 4.3 µM | 1.4 µM | 1.5 µM | 1.3 µM | 11.8 µM | 2.88 | 7.8 µM | 5.8 µM | 1.3 µM
N#CC1CN1C(=O)Nc1ccc(Cl)cc1Cl (stereo not drawn) [Compound 17, 2-Cyanoaziridine-1-[N-(2,4-dichlorophenyl)]carboxamide] | 33 µM | 207 µM | 5.33 | 4.7 µM | 4.7 µM | 35 µM | 2.5 µM | 1.1 µM | 0.9 µM | 0.35 µM | > 39 µM | 3.42 | 9.4 µM | 1.9 µM | 2.2 µM
CCCCNC(=O)N1CC1C#N (stereo not drawn) [Compound 8, 2-Cyanoaziridine-1-(N-butyl) carboxamide] | 12 µM | 12 µM | 4.77 | 17 µM | 17 µM | 12 µM | 18 µM | 6.7 µM | > 12 µM | > 12 µM | 15 µM | 2.00 | 17 µM | 18 µM | 14 µM
CC(C)(C)NC(=O)N1CC1C#N (stereo not drawn) [Compound 9, 2-Cyanoaziridine-1-(N-t-butyl) carboxamide] | 457 µM | 132 µM | 3.92 | 120 µM | 120 µM | 186 µM | 180 µM | 190 µM | > 300 µM | 120 µM | 418 µM | 1.98 | 216 µM | > 300 µM | 180 µM
N#CC1CN1C(=O)Nc1cccc2ccccc12 (stereo not drawn) [Compound 23, 2-Cyanoaziridine-1-[N-(1-naphthyl)]carboxamide] | 2.5 µM | 7.2 µM | 5.10 | 8 µM | 8 µM | 5.9 µM | 2.5 µM | 1.7 µM | 2 µM | 2 µM | 4.2 µM | 3.32 | 8.9 µM | 2.5 µM | 2.4 µM
